Activity calls are given as the source filed them. The calls are words filed in the database; no cut-off is given here.
What was measured:
SNU-16 [1] = experiment: Antitumor activity against human SNU16 cells xenografted in nude BALB/c mouse assessed as tumor growth inhibition relative to control; assay type: functional
[2] = Toxicity in mouse; assay type: organism-based; details: in vivo
[3] = Tmax in CD-1 mouse administered as single po dose by mass spectrometry; assay type: ADME, organism-based; details: in vivo
[4] = Toxicity in mouse administered as single po dose; assay type: organism-based; details: in vivo
[5] = Half life in dog liver microsomes; assay type: ADME, Canis lupus familiaris, microsome
Cytochrome P450 2C19 = Cytochrome P450 2C19 (Homo sapiens, UniProt P33261); experiment: Inhibition of CYP2C19 (unknown origin); assay type: ADME
Sequence of Cytochrome P450 2C19 (P33261 whole entry): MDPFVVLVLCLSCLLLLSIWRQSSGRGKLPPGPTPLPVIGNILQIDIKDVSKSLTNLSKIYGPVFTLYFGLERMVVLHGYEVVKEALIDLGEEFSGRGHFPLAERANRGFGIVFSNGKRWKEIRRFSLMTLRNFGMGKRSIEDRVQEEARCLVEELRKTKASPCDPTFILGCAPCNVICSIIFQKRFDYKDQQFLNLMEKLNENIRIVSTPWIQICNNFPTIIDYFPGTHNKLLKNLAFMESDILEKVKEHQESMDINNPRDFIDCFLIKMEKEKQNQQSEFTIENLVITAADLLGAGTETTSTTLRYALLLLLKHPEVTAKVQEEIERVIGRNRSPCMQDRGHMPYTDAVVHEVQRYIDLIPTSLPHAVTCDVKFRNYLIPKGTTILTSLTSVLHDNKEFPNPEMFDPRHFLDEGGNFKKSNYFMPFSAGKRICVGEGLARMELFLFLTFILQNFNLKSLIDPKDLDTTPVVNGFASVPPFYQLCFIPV

[6] = Stability in human plasma assessed as parent compound remaining after 8 hrs relative to initial time; assay type: ADME, cell-free; details: read-out: Stability
[7] = Unbound fraction in plasma (unknown origin); assay type: ADME, cell-free
[8] = Half life in mouse liver microsomes; assay type: ADME, microsome
[9] = Half life in human liver microsomes; assay type: ADME, microsome
Hs-578T [10] = experiment: Antiproliferative activity against paclitaxel-resistant human Hs 578T cells 10C clone up to 1000 nM after 72 hrs by ATPlite assay; assay type: functional, cell-based
MDA-MB-436 [11] = experiment: Antiproliferative activity against paclitaxel-resistant human MDA-MB-436 cells 20B clone up to 1000 nM after 72 hrs by ATPlite assay; assay type: functional, cell-based
[12] = Efflux ratio of apparent intrinsic permeability in human Caco2 cells after 120 mins by mass spectrometry; assay type: ADME, cell-based; details: Caco-2
[13] = Protein binding in plasma (unknown origin); assay type: ADME, cell-free; details: read-out: PPB (converted)
Mus musculus [14] = experiment: Toxicity in nude BALB/c mouse xenografted with human MFE296 cells assessed as body weight loss at 3.75 to 7.5 mg/kg, po qd administered via gavage for 10 days; assay type: organism-based; details: in vivo, 240 h
Mus musculus [15] = experiment: Toxicity in nude BALB/c mouse xenografted with human A2780 cells assessed as change in body weight at 15 mg/kg, po administered every other day measured up to 12 days post dose; assay type: organism-based; details: in vivo, 288 h
[16] = Stability in human plasma assessed as parent compound remaining after 24 hrs relative to initial time; assay type: ADME, cell-free; details: read-out: Stability
Cytochrome P450 2C9 = Cytochrome P450 2C9 (Homo sapiens, UniProt P11712); experiment: Inhibition of CYP2C9 (unknown origin); assay type: ADME
Sequence of Cytochrome P450 2C9 (P11712 whole entry): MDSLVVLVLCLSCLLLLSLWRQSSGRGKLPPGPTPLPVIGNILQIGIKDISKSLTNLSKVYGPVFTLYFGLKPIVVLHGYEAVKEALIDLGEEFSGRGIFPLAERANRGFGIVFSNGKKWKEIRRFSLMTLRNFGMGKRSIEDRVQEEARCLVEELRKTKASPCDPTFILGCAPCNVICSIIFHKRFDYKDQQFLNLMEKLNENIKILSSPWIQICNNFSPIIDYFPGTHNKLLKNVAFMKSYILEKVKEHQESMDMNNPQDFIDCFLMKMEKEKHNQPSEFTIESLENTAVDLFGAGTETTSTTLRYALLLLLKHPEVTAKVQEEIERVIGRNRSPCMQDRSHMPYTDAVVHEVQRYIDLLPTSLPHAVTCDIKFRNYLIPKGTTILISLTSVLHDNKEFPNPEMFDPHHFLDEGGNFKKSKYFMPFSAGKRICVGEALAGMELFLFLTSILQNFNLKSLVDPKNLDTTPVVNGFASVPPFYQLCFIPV

MFE-296 [17] = experiment: Antitumor activity against human MFE296 cells xenografted in nude BALB/c mouse assessed as tumor growth inhibition at 3.75 to 7.5 mg/kg, po qd administered via gavage for 10 days relative to control; assay type: functional
Breast carcinoma cell [18] = experiment: Antitumor activity against chemo-refractory disease patient-derived breast cancer cells xenografted in NOD/SCID mouse assessed as tumor regression at 10 mg/kg, po qd administered via gavage for 60 days; assay type: functional, organism-based; details: Homo sapiens
SNU-16 [19] = experiment: Antitumor activity against human SNU16 cells harboring luciferase orthotopically implanted in gastric mucosa of Balb/c nude mouse assessed as tumor growth inhibition at 20 mg/kg, po qd administered for 5 days per week for 3 weeks starting from 1 week post tumor implantation by luminescence imaging method; assay type: functional, organism-based
Cytochrome P450 2D6 = Cytochrome P450 2D6 (Homo sapiens, UniProt P10635); experiment: Inhibition of CYP2D6 (unknown origin); assay type: ADME
Sequence of Cytochrome P450 2D6 (P10635 whole entry): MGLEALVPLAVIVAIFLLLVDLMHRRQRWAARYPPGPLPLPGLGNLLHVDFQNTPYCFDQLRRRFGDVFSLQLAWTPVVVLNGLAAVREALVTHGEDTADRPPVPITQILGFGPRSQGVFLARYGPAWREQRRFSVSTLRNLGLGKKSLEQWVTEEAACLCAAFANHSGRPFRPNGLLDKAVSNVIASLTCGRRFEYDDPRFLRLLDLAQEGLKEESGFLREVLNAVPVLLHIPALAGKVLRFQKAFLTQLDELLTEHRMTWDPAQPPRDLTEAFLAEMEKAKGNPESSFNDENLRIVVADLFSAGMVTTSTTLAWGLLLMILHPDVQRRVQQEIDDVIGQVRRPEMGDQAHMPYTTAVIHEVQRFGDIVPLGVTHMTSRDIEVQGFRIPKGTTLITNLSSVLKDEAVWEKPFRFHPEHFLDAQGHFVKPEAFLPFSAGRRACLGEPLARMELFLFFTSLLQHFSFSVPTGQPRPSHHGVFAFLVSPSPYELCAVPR

MDA-MB-436 [20] = experiment: Antiproliferative activity against human MDA-MB-436 cells up to 1000 nM after 72 hrs by ATPlite assay; assay type: functional, cell-based
Hs-578T [21] = experiment: Antiproliferative activity against paclitaxel-resistant human Hs 578T cells 20B clone up to 1000 nM after 72 hrs by ATPlite assay; assay type: functional, cell-based
Mus musculus [22] = experiment: Toxicity in nude BALB/c mouse xenografted with human MFE296 cells assessed as body weight loss at 15 mg/kg, po qd administered via gavage for 10 days measured after 6 days; assay type: organism-based; details: in vivo, 144 h
[23] = Stability in human plasma assessed as parent compound remaining after 75 mins relative to initial time; assay type: ADME, cell-free; details: read-out: Stability
[24] = Drug recovery in plasma (unknown origin); assay type: ADME, cell-free
[25] = Stability in human plasma assessed as parent compound remaining after 4 hrs relative to initial time; assay type: ADME, cell-free; details: read-out: Stability
A2780 [26] = experiment: Antitumor activity against human A2780 cells xenografted in nude BALB/c mouse assessed as tumor growth inhibition at 20 mg/kg, po qd measured up to 12 days post dose; assay type: functional, organism-based
Cytochrome P450 3A4 = Cytochrome P450 3A4 (Homo sapiens, UniProt P08684); experiment: Inhibition of CYP3A4 (unknown origin); assay type: ADME
Sequence of Cytochrome P450 3A4 (P08684 whole entry): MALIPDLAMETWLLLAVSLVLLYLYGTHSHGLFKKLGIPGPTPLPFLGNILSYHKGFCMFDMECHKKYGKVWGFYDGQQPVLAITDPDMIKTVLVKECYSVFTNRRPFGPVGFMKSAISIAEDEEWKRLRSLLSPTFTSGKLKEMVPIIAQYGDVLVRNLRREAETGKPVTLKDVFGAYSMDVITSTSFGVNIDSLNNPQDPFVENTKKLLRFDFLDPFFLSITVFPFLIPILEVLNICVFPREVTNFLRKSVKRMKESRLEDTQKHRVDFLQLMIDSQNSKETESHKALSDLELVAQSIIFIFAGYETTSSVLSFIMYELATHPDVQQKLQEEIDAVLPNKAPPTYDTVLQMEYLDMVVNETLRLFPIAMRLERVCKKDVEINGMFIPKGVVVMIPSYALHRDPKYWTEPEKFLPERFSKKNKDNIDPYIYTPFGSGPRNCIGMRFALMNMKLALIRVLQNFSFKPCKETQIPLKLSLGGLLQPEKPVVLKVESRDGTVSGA

A2780 [27] = experiment: Antitumor activity against human A2780 cells xenografted in nude BALB/c mouse assessed as tumor growth inhibition at 15 mg/kg, po administered every other day measured up to 12 days post dose; assay type: functional, organism-based
Hs-578T [28] = experiment: Antiproliferative activity against human Hs 578T cells up to 1000 nM after 72 hrs by ATPlite assay; assay type: functional, cell-based
[29] = Half life in rat liver microsomes; assay type: ADME, microsome
[30] = Stability in human plasma assessed as parent compound remaining after 2 hrs relative to initial time; assay type: ADME, cell-free; details: read-out: Stability
Mus musculus [31] = experiment: Toxicity in nude BALB/c mouse xenografted with human A2780 cells assessed as change in body weight at 20 mg/kg, po qd measured up to 12 days post dose; assay type: organism-based; details: in vivo, 288 h
Mus musculus [32] = experiment: Toxicity in NOD/SCID mouse xenografted with chemo-refractory disease patient-derived breast cancer cells at 10 mg/kg, po qd administered via gavage for 60 days; assay type: organism-based; details: in vivo, 1440 h
Breast carcinoma cell [33] = experiment: Antitumor activity against chemo-refractory disease patient-derived breast cancer cells xenografted in NOD/SCID mouse assessed as tumor growth inhibition at 10 mg/kg, po qd administered via gavage for 15 days; assay type: functional, organism-based; details: Homo sapiens
in vitro [34] = details: human, Caco-2
Description: Apparent intrinsic permeability in human Caco2 cells from basolateral to apical side after 120 mins by mass spectrometry

MFE-296 [35] = experiment: Antitumor activity against human MFE296 cells xenografted in nude BALB/c mouse assessed as tumor growth inhibition at 15 mg/kg, po qd administered via gavage for 10 days; assay type: functional, organism-based
Cytochrome P450 1A2 = target: T1, Cytochrome P450 1A2 (Homo sapiens, UniProt P05177); experiment: Inhibition of CYP1A2 (unknown origin); assay type: ADME
T1 sequence (P05177 whole entry): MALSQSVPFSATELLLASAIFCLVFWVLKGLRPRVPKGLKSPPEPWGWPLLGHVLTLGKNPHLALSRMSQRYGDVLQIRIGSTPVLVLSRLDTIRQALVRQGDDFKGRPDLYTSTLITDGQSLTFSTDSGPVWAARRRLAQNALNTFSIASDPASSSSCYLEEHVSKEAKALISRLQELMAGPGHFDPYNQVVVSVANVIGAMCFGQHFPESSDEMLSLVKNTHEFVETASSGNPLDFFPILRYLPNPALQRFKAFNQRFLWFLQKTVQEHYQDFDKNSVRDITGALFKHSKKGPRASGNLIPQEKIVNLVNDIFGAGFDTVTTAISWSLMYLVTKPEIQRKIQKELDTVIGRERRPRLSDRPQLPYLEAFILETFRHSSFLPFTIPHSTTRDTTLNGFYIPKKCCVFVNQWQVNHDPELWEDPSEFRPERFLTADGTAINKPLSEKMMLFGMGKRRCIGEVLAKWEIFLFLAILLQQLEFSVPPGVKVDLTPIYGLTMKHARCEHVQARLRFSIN

in vitro [36] = details: human, Caco-2; remark: listed apart in the source
Description: Apparent intrinsic permeability in human Caco2 cells from apical to basolateral side after 120 mins by mass spectrometry

BT-549 [37] = experiment: Antiproliferative activity against human BT549 cells up to 1000 nM after 72 hrs by ATPlite assay; assay type: functional, cell-based
BT-549 [38] = experiment: Antiproliferative activity against paclitaxel-resistant human BT549 cells 10A clone up to 1000 nM after 72 hrs by ATPlite assay; assay type: functional, cell-based
MDA-MB-436 [39] = experiment: Antiproliferative activity against paclitaxel-resistant human MDA-MB-436 cells 20A clone up to 1000 nM after 72 hrs by ATPlite assay; assay type: functional, cell-based
Breast carcinoma cell [40] = experiment: Antitumor activity against chemo-refractory disease patient-derived breast cancer cells xenografted in NOD/SCID mouse assessed as tumor growth inhibition at 20 mg/kg, iv administered weekly for 15 days; assay type: functional, organism-based; details: Homo sapiens

Compound: O=C(Nc1ccc(-c2cccc(Cl)c2)cn1)c1cncnc1
- TGI (SNU-16 [1]): 66%
- MTD [2]: ≤ 6 mg/kg

Compound: Cc1ncc(C(=O)Nc2ccc(-c3cccc(C4CC4)c3)cn2)cn1
- TGI (SNU-16 [1]): 73%
- Tmax [3]: ≤ 15 min
- MTD [2]: ≤ 6 mg/kg

Compound: O=C(Nc1ccc(-c2cccc(C3CC3)c2)cn1)c1cncnc1
- TGI (SNU-16 [1]): 74%
- Tmax [3]: ≤ 15 min
- MTD [2]: ≤ 6 mg/kg

Compound: Cc1ncc(C(=O)Nc2ccc(-c3cccc(S(=O)(=O)C4CC4)c3)cn2)cn1
- MTD [4]: ≤ 20 mg/kg
- half-life [5]: 49.9 min
- IC50 (Cytochrome P450 2C19): > 30 µM
- remaining at 8 h [6]: 102%
- fraction unbound [7]: 0.022
- half-life [8]: 67.4 min
- half-life [9]: 144 min
- Activity (Hs-578T [10]): Active
- Activity (MDA-MB-436 [11]): Active
- efflux ratio at 2 h [12]: 1.02
- fraction unbound [13]: 0.022
- Activity (Mus musculus [14]): Non-Toxic
- Activity (Mus musculus [15]): Non-Toxic
- remaining at 24 h [16]: 115%
- IC50 (Cytochrome P450 2C9): > 30 µM
- TGI (MFE-296 [17]): >85%
- Activity (Breast carcinoma cell [18]): Active
- TGI (SNU-16 [1]): 109%
- TGI (SNU-16 [19]): Active
- IC50 (Cytochrome P450 2D6): > 30 µM
- Activity (MDA-MB-436 [20]): Active
- Activity (Hs-578T [21]): Active
- Activity (Mus musculus [22]): Toxic
- remaining at 1.25 h [23]: 93%
- Drug recovery [24]: 87.2%
- remaining at 4 h [25]: 103%
- TGI (A2780 [26]): Active
- IC50 (Cytochrome P450 3A4): > 30 µM
- TGI (A2780 [27]): Active
- Activity (Hs-578T [28]): Active
- Tmax [3]: ≤ 15 min
- half-life [29]: 79.6 min
- remaining at 2 h [30]: 111%
- Activity (Mus musculus [31]): Toxic
- Activity (Mus musculus [32]): Non-Toxic
- TGI (Breast carcinoma cell [33]): Active
- Papp B→A at 2 h (in vitro [34]): 26.1 ×10⁻⁶ cm/s
- TGI (MFE-296 [35]): Active
- IC50 (Cytochrome P450 1A2): > 30 µM
- Papp A→B at 2 h (in vitro [36]): 25.7 ×10⁻⁶ cm/s
- Activity (BT-549 [37]): Active
- Activity (BT-549 [38]): Active
- MTD [2]: ≤ 6 mg/kg
- Activity (MDA-MB-436 [39]): Active

Compound: CC(=O)CC(c1ccccc1)c1c(O)c2ccccc2oc1=O (stereo not given) [WARFARIN]
- Drug recovery [24]: 98.63%

Compound: Cc1ncc(C(=O)Nc2ccc(-c3cccc(NC4CC4)c3)cn2)cn1
- TGI (SNU-16 [1]): 67%
- Tmax [3]: ≤ 15 min
- MTD [2]: ≤ 6 mg/kg

Compound: CC(=O)O[C@H]1C(=O)[C@@]2(C)[C@H]([C@H](OC(=O)c3ccccc3)[C@]3(O)C[C@H](OC(=O)[C@H](O)[C@@H](NC(=O)c4ccccc4)c4ccccc4)C(C)=C1C3(C)C)[C@]1(OC(C)=O)CO[C@@H]1C[C@@H]2O
- TGI (Breast carcinoma cell [40]): inactive
- Activity (Hs-578T [10]): inactive
- Activity (MDA-MB-436 [11]): inactive
- Activity (MDA-MB-436 [20]): Active
- Activity (Hs-578T [21]): inactive
- Activity (Hs-578T [28]): Active
- Activity (BT-549 [37]): Active
- Activity (BT-549 [38]): inactive
- Activity (MDA-MB-436 [39]): inactive

— ChEMBL document CHEMBL4184281, “Pharmacology and in vivo efficacy of pyridine-pyrimidine amides that inhibit microtubule polymerization” (Bioorg Med Chem Lett, 2018)
